Measurements published in patent US20250099405A1, “COMPOSITIONS, METHODS, AND DEVELOPMENT OF ARID4B INHIBITORS” (University of Kentucky Research Foundation, priority 2022, published 2025).

What was measured:
[1] = system: MCF7 xenograft; test: MCF7 xenograft model; format: in vivo, SCID mice; details: 25 mg/kg once every two days for 24 days
Experimental: The effects of RWR18 on tumor growth was determined using MCF7 xenograft model. When tumor in SCID mice reached 150-200 mm^3, mice were randomized to receive vehicle or RWR18 (25 mg/kg) once every two days for 24 days. […] Bar, 5 mm.
The effects of RWR18 on tumor growth was determined using MCF7 xenograft model. When tumor in SCID mice reaches 150-200 mm^3, mice were randomized to receive vehicle or RWR18 (25 mg/kg) once every two days for 24 days.
The effects of RWR18 on tumor growth was determined using MCF7 xenograft model. When tumor in SCID mice reached 150-200 mm^3, mice were randomized to receive vehicle or RWR18 (25 mg/kg) once every two days for 24 days.

[2] = molecular target: T1, Flag-ARID4A (Homo sapiens, UniProt P29374); test: CETSA in cells expressing Flag-ARID4A; format: cell-based; details: 10 μM, 2 h
T1 construct: expressed in transfected cells
T1 sequence (P29374 1-1257): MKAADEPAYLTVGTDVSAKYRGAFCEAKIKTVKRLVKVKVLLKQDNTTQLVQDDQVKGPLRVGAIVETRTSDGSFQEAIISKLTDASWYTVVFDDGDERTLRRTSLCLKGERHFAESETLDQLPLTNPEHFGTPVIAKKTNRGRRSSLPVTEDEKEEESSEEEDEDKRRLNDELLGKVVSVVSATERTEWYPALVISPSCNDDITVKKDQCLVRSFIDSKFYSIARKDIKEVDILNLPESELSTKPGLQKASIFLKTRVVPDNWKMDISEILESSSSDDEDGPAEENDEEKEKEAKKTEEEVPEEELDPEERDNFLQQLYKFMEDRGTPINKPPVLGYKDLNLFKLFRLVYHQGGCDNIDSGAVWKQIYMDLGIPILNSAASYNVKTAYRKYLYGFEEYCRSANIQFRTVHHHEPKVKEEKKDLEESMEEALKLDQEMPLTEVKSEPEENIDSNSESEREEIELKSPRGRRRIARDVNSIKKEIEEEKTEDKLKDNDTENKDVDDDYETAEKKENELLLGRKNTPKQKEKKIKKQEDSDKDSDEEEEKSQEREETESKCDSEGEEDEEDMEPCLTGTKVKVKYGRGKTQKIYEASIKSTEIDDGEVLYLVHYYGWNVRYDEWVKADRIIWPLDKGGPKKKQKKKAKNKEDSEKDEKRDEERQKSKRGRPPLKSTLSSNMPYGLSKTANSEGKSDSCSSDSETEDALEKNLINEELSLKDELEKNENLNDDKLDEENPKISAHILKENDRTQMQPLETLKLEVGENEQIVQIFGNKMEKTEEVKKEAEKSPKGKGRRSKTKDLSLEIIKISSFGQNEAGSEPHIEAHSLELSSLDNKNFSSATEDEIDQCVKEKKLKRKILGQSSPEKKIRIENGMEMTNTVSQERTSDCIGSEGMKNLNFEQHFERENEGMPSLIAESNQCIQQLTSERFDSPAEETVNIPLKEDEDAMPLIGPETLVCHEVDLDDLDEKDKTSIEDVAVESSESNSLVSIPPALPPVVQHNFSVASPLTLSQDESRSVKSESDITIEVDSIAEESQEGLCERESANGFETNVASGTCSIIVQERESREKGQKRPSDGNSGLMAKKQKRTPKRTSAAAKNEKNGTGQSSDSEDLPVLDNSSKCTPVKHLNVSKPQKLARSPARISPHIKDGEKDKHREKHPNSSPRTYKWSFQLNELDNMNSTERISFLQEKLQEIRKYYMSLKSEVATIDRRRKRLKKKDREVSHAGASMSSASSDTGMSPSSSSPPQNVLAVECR
Experimental: (B-C) show cells expressing HA-ARID4B (C) or HA-ARID4BIC (D) treated or not with ARD150 (10 μM) for 2 h were used for CESTA. […] (D-E) show cells expressing HA-ARID4B (D) or Flag-ARID4A (E) treated or not with RWR-18 (10 μM) for 2 h were used for CESTA. […] Data are means±SEM from three experiments. *P<0.05, **P<0.01, ns, not significant.
Using CETSA (cellular thermal shift assay) to examine whether ARD150 or RWR-18 binds to ARID4B, MCF7 cells treated or not with ARD150 or RWR-18 for 2 h were collected, followed by heating at 46, 49, 52, 55, and 58° C. to denature and precipitate ARID4B protein, cell lysis, removal of cell debris and aggregates by centrifugation, and finally detection of remaining thermostable ARID4B protein by western blot. The ARID4B aggregation temperatures without ARD150 were determined to be 49-52° C., but shifted to 52-55° C. after treatment with ARD150 and even more so with RWR-18 (FIG. 15A-D). To determine whether ARD150 and RWR-18 targets the chromodomain of ARID4B, CESTA was performed using chromodomain deletion mutant (ARID4BAC). HEK-293T cells expressing HA-ARID4B or HA-ARID4BAC were treated or not with ARD150 (10 μM) for 2 h and processed for CESTA.

O=C(COc1ccc(OCc2ccccc2)cc1)NCCCN1CCOCC1 [RWR-18]
tumor growth [1]: inhibited tumor growth | percentage of apoptotic cells in tumors ([1]; versus vehicle): increases | shift of aggregation temperatures of Flag-ARID4A [2]: no shift was observed
